The source of these data is US20070032417A1, “Peptides and therapeutic uses thereof” (priority 2002, published 2007).

Data set [1] can be described thus: Circular dichroism, alpha-helical content of peptides. The data set is classed as physicochemical. The note with it: 30% aqueous trifluoroethanol. The protocol:
Circular dichroism spectra were obtained using a Jasco Model J-710 spetropolarimeter at 20° C. using the following parameters: path length, 2 mm; step resolution, 0.1 nm; speed, 20 nm/min; accumulation, 4; response, 1 second; bandwidth, 1.0 nm. The peptides were analysed at a concentration of 0.5 mg/mL in 30% aqueous TFE. The alpha-helical content of the peptides were determined by methods described in Yang et al (1986), involving comparisons of spectra with model helical peptides.
For orientation: CD spectra are sensitive to the conformation of chiral molecules.

In a further data set the target is Bcl-2 ΔC22 (Homo sapiens, UniProt P10415). In words: Competition assay using biotinylated Bim-BH3 peptide, Bcl-2 ΔC22. The format is binding. The note with it: for IC50: competition with biotinylated Bim-BH3 peptide. An excerpt: The results are shown below:
The target in data set [2] is T1, 6-His tagged Bcl w delta C10 protein (Homo sapiens, UniProt Q92843).
T1 sequence (Q92843 1-183 limits assumed): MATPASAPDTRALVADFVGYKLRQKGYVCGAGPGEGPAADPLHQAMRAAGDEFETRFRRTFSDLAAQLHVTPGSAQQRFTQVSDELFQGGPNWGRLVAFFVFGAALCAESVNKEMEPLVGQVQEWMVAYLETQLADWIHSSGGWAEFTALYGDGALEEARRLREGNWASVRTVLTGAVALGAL
In words: Alphascreen competition with Bim26mer, Hexa-His detection system. Particulars: competition with biotinylated Bim-BH3 peptide; read-out: IC50 (nM) Bcl-w ΔC10. The data set is classed as binding. The text has this:
Alphascreen (Amplified Luminsecent Proximity Homogenous Assay) is a bead based technology which measures a biological interaction between molecules. The assay consists of two hydrogel coated beads which, when bought into close proximity by a binding interaction, allow a transfer of singlet oxygen from a donor bead to an acceptor bead.
Upon binding a photosensitiser in the donor bead converts ambient oxygen to a more excited singlet state. This singlet oxygen then diffuses across to react with a chemiluminescer in the acceptor bead. Fluorophores within the same bead are activated, resulting in the emission of light.
Screening of the conformationally constrained peptides was performed using the Hexa-His detection system. Non biotinylated peptides dissolved in DMSO were titrated into the assay which consisted of 6-His tagged Bcl w delta C10 protein (24 nM Final concentration) and Biotinylated Bim BH3-26 peptide, Biotin-[…] [SEQ ID NO: 40] (1.5 nM Final concentration). To this reaction mix 6His tagged (Nickel Chelate) acceptor beads and Streptavidin coated donor beads, both at 10 ug/ml Final concentration, were added.
Assay buffer contained 50 mM Hepes pH 7.4, 10 mM DTT, 100 mM NaCl, 0.05% Tween and 1 mg/ml BSA. Bead dilution buffer contained 50 mM Tris, pH 7.5, 0.01% Tween and 1 mg/ml BSA. The final DMSO concentration in the assay was 1%. Assays were performed in 384 well white Optiplates and analysed on the Perkin Elmer Fusion plate reader (Ex680, Em520-620 […]).

The target in data set [3] is T2, GST tagged Bcl w delta C29 protein (Homo sapiens, UniProt Q92843).
T2 sequence (Q92843 1-164 limits assumed): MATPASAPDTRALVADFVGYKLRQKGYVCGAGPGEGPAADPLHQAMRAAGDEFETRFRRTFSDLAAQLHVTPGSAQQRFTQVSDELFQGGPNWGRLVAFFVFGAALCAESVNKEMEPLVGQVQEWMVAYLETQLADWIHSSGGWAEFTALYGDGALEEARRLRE
In words: Alphascreen competition with Bim26mer, GST detection system. The data set is classed as binding. The note with it: for change in binding affinity, in words / decrease in binding affinity: Bcl-w ΔC29, compared to the linear 16-mer. On the technique in general: Alpha assays give light when donor and acceptor beads are brought close together.

In data set [4] the target is GST tagged Bcl w delta C29 protein (UniProt Q92843). In words: AlphaScreen competition with biotinylated Bim BH3-26 peptide.
Setting [5] is: competition with biotinylated Bim-BH3 peptide, 12-mers, Example 7, read-out: IC50 (nM) Bcl-w ΔC29.
[6] abbreviates: substituted 16-mers, Example 9, read-out: IC50 nM Bcl-w ΔC29.
The mark [7] stands for this setting: Puma and Bmf peptides, Example 10, read-out: IC50 nM Bcl-w ΔC29.

Where two headings read alike, the source gives them in different places. *1 amine or outer side, *2 acyl side, *3 side chain or, on linkers, in order; H or OH if unused. Where a SMILES comes first, the peptide text is derived from it. Bridges are numbered along the chain shown (N, C = ends). [ ]: non-standard residue; d: D form. Hexamethylenediamine = C(CCCN[*:2])CCN[*:1]; NH(CH2)5NH = C(CCN[*:1])CCN[*:2]; Cit = NC(=O)NCCC[C@H](N)C(=O)O; X1 = O=C(CN[*:1])NCCN[*:2]

Take `CC[C@H](C)[C@H](NC(=O)[C@@H]1CCC(=O)NCCCCCNC(=O)CC[C@H](NC(C)=O)C(=O)N[C@@H]([C@@H](C)CC)C(=O)N[C@@H](C)C(=O)N[C@@H](CCC(N)=O)C(=O)N[C@@H](CCC(=O)O)C(=O)N[C@@H](CC(C)C)C(=O)N[C@@H](CCCNC(=N)N)C(=O)N1)C(=O)NCC(=O)N[C@@H](CC(=O)O)C(=O)N[C@@H](CCC(=O)O)C(=O)N[C@@H](Cc1ccccc1)C(N)=O` [A, Ac-E-IAQELR-E-IGDEF-NH2] (Ac-EIAQELREIGDEF-NH2; linker 1-8 via NH(CH2)5NH): in data set [1], the “% Helicity” value turned out to be 33%. Further, the results for the IC50 (on Bcl-2 ΔC22; in data set [2]; in data set [3] (setting [5])) were 26000 nM, 2600 nM and 1800 nM, respectively.
For `CC[C@H](C)[C@H](NC(C)=O)C(=O)N[C@@H](C)C(=O)N[C@@H](CCC(N)=O)C(=O)N[C@H]1CCC(=O)NCCCCCCNC(=O)CC[C@@H](C(=O)N[C@@H](Cc2ccccc2)C(N)=O)NC(=O)[C@H](CC(=O)O)NC(=O)CNC(=O)[C@H]([C@@H](C)CC)NC(=O)[C@H](CCCNC(=N)N)NC(=O)[C@H](CCCNC(=N)N)NC(=O)[C@H](CC(C)C)NC1=O` [C, Ac-IAQ-E-LRRIGD-E-F-NH2] (Ac-IAQELRRIGDEF-NH2; linker 4-11 via Hexamethylenediamine), the “% Helicity” value in data set [1] was 39%. Further, the “affinity for Bcl-2 and Bcl-xL over the unconstrained 12-mer, in words” value at Bcl-2 ΔC22 (compared to the unconstrained 12-mer) is listed as “outstanding increases in affinity”. Moreover, the figures for the IC50 (at Bcl-2 ΔC22; in data set [2]; in data set [3] (setting [5])) were 2600 nM, 230 nM and 120 nM, respectively.
Turning to `CC[C@H](C)[C@H](NC(C)=O)C(=O)N[C@@H](C)C(=O)N[C@@H](CCC(N)=O)C(=O)N[C@H]1CCC(=O)NCC(=O)NCCNC(=O)CC[C@@H](C(=O)N[C@@H](Cc2ccccc2)C(N)=O)NC(=O)[C@H](CC(=O)O)NC(=O)CNC(=O)[C@H]([C@@H](C)CC)NC(=O)[C@H](CCCNC(=N)N)NC(=O)[C@H](CCCNC(=N)N)NC(=O)[C@H](CC(C)C)NC1=O` [D] (Ac-IAQELRRIGDEF-NH2; linker 4-11 via X1), in data set [1], the “% Helicity” value is reported as 16%. For the same molecule, the IC50 at Bcl-2 ΔC22 was 6900 nM; in data set [2], 40 nM; in data set [3] (setting [5]) it was 160 nM.
As to `CC[C@H](C)[C@H](NC(C)=O)C(=O)N[C@@H](Cc1c[nH]c2ccccc12)C(=O)N[C@H](C(=O)N[C@@H](C)C(=O)N[C@@H](CCC(N)=O)C(=O)N[C@H]1CCC(=O)NCCCCCNC(=O)CC[C@@H](C(=O)N[C@@H](Cc2ccccc2)C(=O)N[C@@H](CC(N)=O)C(=O)N[C@@H](C)C(N)=O)NC(=O)[C@H](CC(=O)O)NC(=O)CNC(=O)[C@H]([C@@H](C)CC)NC(=O)[C@H](CCCNC(=N)N)NC(=O)[C@H](CCCNC(=N)N)NC(=O)[C@H](CC(C)C)NC1=O)[C@@H](C)CC` [E] (Ac-IWIAQELRRIGDEFNA-NH2; linker 6-13 via NH(CH2)5NH), the IC50 in data set [3] (values repeated in text, read-out: binding of the constrained peptide to Bcl-w) was determined as 0.5 nM.
Take `CC[C@H](C)[C@H](NC(=O)[C@H](C)NC(=O)[C@H](CCC(N)=O)NC(C)=O)C(=O)N[C@@H](C)C(=O)N[C@@H](CCC(N)=O)C(=O)N[C@H]1CCC(=O)NCCCCCNC(=O)CC[C@@H](C(=O)N[C@@H](Cc2ccccc2)C(=O)N[C@@H](CC(N)=O)C(=O)N[C@@H](C)C(N)=O)NC(=O)[C@H](CC(=O)O)NC(=O)CNC(=O)[C@H]([C@@H](C)CC)NC(=O)[C@H](CCCNC(=N)N)NC(=O)[C@H](CCCNC(=N)N)NC(=O)[C@H](CC(C)C)NC1=O` [Peptide G, Ac-QAIAQZLRRIGDZFNA-NH2] (Ac-QAIAQELRRIGDEFNA-NH2; linker 6-13 via NH(CH2)5NH): the IC50 in data set [3] came out at 2.4 nM.
`CC[C@H](C)[C@H](NC(C)=O)C(=O)N[C@@H](Cc1c[nH]c2ccccc12)C(=O)N[C@H](C(=O)N[C@@H](C)C(=O)N[C@@H](CCC(N)=O)C(=O)N[C@@H](CCC(=O)O)C(=O)N[C@@H](CC(C)C)C(=O)N[C@@H](CCCNC(N)=O)C(=O)N[C@@H](CCCNC(N)=O)C(=O)N[C@H](C(=O)NCC(=O)N[C@@H](CC(=O)O)C(=O)N[C@@H](CCC(=O)O)C(=O)N[C@@H](Cc1ccccc1)C(=O)N[C@@H](CC(N)=O)C(=O)N[C@@H](C)C(N)=O)[C@@H](C)CC)[C@@H](C)CC` [Peptide T] (Ac-IWIAQEL[Cit][Cit]IGDEFNA-NH2): the IC50 in data set [3] (setting [6]) was determined as 20 nM.
Ac-AWIAQELRRIGDEFNA-NH2 [O]: in data set [3], the “change in binding affinity, in words” value is on record as “drop in binding”. The IC50 in data set [3] (setting [6]) was determined as 22 nM.
For Ac-IAIAQELRRIGDEFNA-NH2 [P] the same measures were “drop in binding” and 42 nM.
On the same counts, the results for Ac-IFIAQELRRIGDEFNA-NH2 [N] are “drop in binding” and 11 nM.
For Ac-IRIAQELRRIGDEFNA-NH2 [Q] the same measures were “drop in binding” and 17 nM.
Consider Ac-IWAAQEARRAGDEANA-NH2 [M], for which the IC50 in data set [3] (setting [6]) amounted to 64000 nM.
Take Ac-IWAAQELRRIGDEFNA-NH2 [Peptide I]: in data set [3], the “change in binding affinity, in words” value was “slight decrease in binding affinity” and the “decrease in binding affinity” value is 100 fold. For the same molecule, in data set [3] (setting [6]), the IC50 stood at 360 nM.
In the case of Ac-IWIAQEARRIGDEFNA-NH2 [Peptide J], the “decrease in binding affinity” value in data set [3] is listed as “about 1000 fold”. Also, the IC50 in data set [3] (setting [6]) turned out to be 3700 nM.
For Ac-IWIAQELRRAGDEFNA-NH2 [Peptide K] the same measures were 3 fold and 7.3 nM.
For Ac-IWIAQELRRIGDEANA-NH2 [Peptide L] the same measures were 1,000 fold and 3500 nM.
Ac-IWIAQELRRIGDEFAA-NH2 [Peptide S]: the “change in binding affinity, in words” value in data set [3] is on record as “only slight, if any, loss of binding affinity”. Also, in data set [3] (setting [6]), the IC50 was determined as 3.3 nM.
Take Ac-IWIAQELRRIGDEFAN-NH2 [Peptide R]: in data set [3] (setting [6]), the IC50 was determined as 12 nM.
For the molecule “Ac-IWIAQELRRIGDEFNA-NH2 [linear 16-mer, reference compound]”, the IC50 in data set [3] (competition with biotinylated BIM-BH3 peptide, 16-mers, Example 8, read-out: IC50 (nM) Bcl-w ΔC29) was determined as 2.5 nM.
For Ac-IWIAQELRRIGDEFNN-NH2 [Peptide U], the “decrease in binding affinity” value in data set [3] is “two”. The IC50 in data set [3] (setting [6]) amounted to 5.8 nM.
Consider Ac-IWIAQQLRRIGDQFNA-NH2 [H], for which the IC50 in data set [3] (setting [6]) is 3.3 nM.
Turning to Ac-REIGAQLRRMADDLNA-NH2 [Puma], the IC50 in data set [3] (setting [7]) came to 52 nM.
Ac-VQIARKLQAIADQFHR-NH2 [Bmf]: in data set [3] (setting [7]), the IC50 was 0.25 nM.

B1: Peptide K (linear), Ac-…-NH2 (peptide)
peptide: Ac-IWIAQELRRAGDEFNA-NH2
Regarding B1, in data set [4], the fold decrease in affinity (against the linear 16-mer) was determined as 3 fold.

B2: Peptide J (linear), Ac-…-NH2 (peptide)
peptide: Ac-IWIAQEARRIGDEFNA-NH2
In turn, B2 returned a fold decrease in affinity (against the linear 16-mer) in data set [4] of 1000 fold.

B3: Peptide U (linear), Ac-…-NH2 (peptide)
peptide: Ac-IWIAQELRRIGDEFNN-NH2
On to B3, for which the fold loss of binding affinity (against the linear 16-mer) in data set [4] came to 2 fold.

B4: Peptide L (linear), Ac-…-NH2 (peptide)
peptide: Ac-IWIAQELRRIGDEANA-NH2
Molecule B4 showed a fold decrease in affinity (against the linear 16-mer) in data set [4] of 1000 fold.

B5: Peptide I (linear), Ac-…-NH2 (peptide)
peptide: Ac-IWAAQELRRIGDEFNA-NH2
In data set [4], B5 yielded a fold decrease in binding affinity (against the linear 16-mer) of 100 fold.

B6: Peptide M (linear), Ac-…-NH2 (peptide)
peptide: Ac-IWAAQEARRAGDEANA-NH2
Turning to B6, the fold decrease in binding affinity (against the linear 16-mer) in data set [4] is 25000 fold.
